Measured values taken from patent publication US9220705B2, “Method of treating colorectal cancer” (priority 2013, dated 2015).
Entries after “also recorded” stand apart in the source; their conditions may differ. Read-outs that look alike come from different tables or passages of the source.

Key:
[1] = type: physicochemical
Excerpt: Lipophilicity is usually expressed in terms of n-octanol/water partition coefficient, log Po/w, and correlates with cellular uptake by passive diffusion (Liu, X., et al., Pharm. Res. 2011, 28, 962-977).
Since RP-HPLC retention is due to partitioning between mobile (polar) and stationary (apolar) phases, there is a good correlation between capacity factor k′ (k′=(tR−t0)/t0, where t0 is the retention time for an unretained compound and tR is the retention time of the analyte) and partition coefficient (log Po/w=a+b log k′). Thus the HPLC procedure represents a good alternative to the time- and material-consuming shake-flask method. […] This implies that there are specific import (CTR1, OCT, etc.) or export (ATP7B) mechanisms which operate selectively on the different types of complexes.

[2] = tested on: human ovarian A2780 cancer cell line; conditions: Kasparkova 2010; cited from earlier work
[3] = tested on: LoVo-OXP colorectal adenocarcinoma xenografts; test: In vivo anticancer activity, oxaliplatin-resistant colorectal xenograft; design: species or system BALB/c nu/nu mice; conditions: LoVo-OXP xenograft mice, day 14 to day 30; FIG. 5 panel B
Description: (§1) LoVo and LoVo-OXP tumor xenografts were established in 6-week-old BALB/c nu/nu mice by injecting 1×10^7 tumor cells subcutaneously (100 μL in serum free medium) on the left dorsal flank. After 24 h from tumor implantation, mice were randomly divided into five groups (6 animals per group, 8 controls). Chemotherapy was delayed until the tumor became palpable (day 14). From day 14, 1 was dosed daily at 3 mg/kg ip whereas OXP was dosed daily at 2 mg/kg ip. Measurements of body weights and tumor volumes were recorded every 2 days until the experimental endpoint. The long axis (L) and the short axis (S) were measured with caliper, and the tumor volume (V) was calculated using the following equation: V=S×S×L/2. At day 30, animals were sacrificed, and the inhibition of tumor growth was determined by comparing the volume of the control group and the treatment group expressed as % referred to the control animals.
(§2) All the values are the means±S.D. of not less than three measurements. Multiple comparisons were made by Tukey-Kramer test (**p<0.01; *p<0.05).

[4] = tested on: LoVo colorectal adenocarcinoma xenografts; test: In vivo anticancer activity, oxaliplatin-sensitive colorectal xenograft; design: species or system BALB/c nu/nu mice; conditions: LoVo xenograft mice, day 14 to day 30; FIG. 5 panel A
Description: as §1, §2

[5] = tested on: Lewis lung carcinoma (LLC); test: In vivo anticancer activity toward Lewis lung carcinoma; design: species or system C57BL mice; conditions: LLC-bearing mice
Description: All studies involving animal testing were carried out in accordance with the ethical guidelines for animal research adopted by the University of Padua, acknowledging the Italian regulation and the European Directive 86/609/EEC as to animal welfare and protection and the related codes of practice. The mice were purchased from Charles River, Italy, and housed in steel cages under controlled environmental conditions (constant temperature, humidity, and 12 h dark/light cycle) and alimented with commercial standard feed and tap water ad libitum. Animals were observed daily, and body weight and food intake recorded. The Lewis lung carcinoma (LLC) cell line was purchased from ECACC, UK. The LLC cell line was maintained in D-MEM (Euroclone) supplemented with 10% heat-inactivated FBS (Euroclone), 10 mM L-glutamine, 100 U mL^−1 penicillin, and 100 μg mL^−1 streptomycin in a 5% CO2 air incubator at 37° C.
The Lewis lung carcinoma (LLC) was implanted i.m. as a 2×10^6 cell inoculum into the right hind leg of 8-week old male and female C57BL mice (24±3 g body weight). […] At day 15, animals were sacrificed, the legs were amputated at the proximal end of the femur, and the inhibition of tumor growth was determined according to the difference in weight of the tumor-bearing leg and the healthy leg of the animals expressed as % referred to the control animals. Body weight was measured every two days and was taken as a parameter for systemic toxicity.
All the values are the means±S.D. of not less than three measurements. Multiple comparisons were made by Tukey-Kramer test (**p<0.01; *p or °p<0.05).
The in vivo antitumor activity of compound 1 was evaluated in a model of solid tumor, the syngeneic murine Lewis lung carcinoma (LLC). […] For the assessment of the adverse side effects, changes in body weights of tumor-bearing mice were monitored daily (FIG. 3).

Aqueous solubility = type: physicochemical; conditions: compared to compound 2
[6] = tested on: 2008/C13*, LoVo/LoVo-OXP, LoVo MDR; test: MTT cytotoxicity, comparison over the Table 2 cell lines; type: cell-based, human; conditions: 2008 ovarian and LoVo colon sensitive cells
Description: (§3) After 24 h, the medium was removed and replaced with a fresh one containing the compound to be studied, at the appropriate concentration, dissolved in 0.9% sodium chloride solution just before use. Triplicate cultures were established for each treatment. After 72 h, each well was treated with […] of a 5 mg mL^−1 MTT saline solution and, after 5 h of incubation, 100 μL of a sodium dodecylsulfate (SDS) solution in 0.01 M HCl were added. After an overnight incubation, the inhibition of cell growth induced by the tested complexes was determined by measuring the absorbance of each well at 570 nm using a BioRad 680 microplate reader. Mean absorbance for each drug dose was expressed as percentage of the control and plotted vs. drug concentration. Dose-response curves were fitted and IC50 values were calculated with four parameter logistic model (4PL).
A LoVo cell line retaining a multidrug resistance phenotype was also considered (LoVo MDR). Cross-resistance profiles were evaluated by means of the resistance factor (RF), which is defined as the ratio between the IC50 value for the resistant cells and that arising from the sensitive cells (Table 2).

[7] = tested on: panel of human tumor cell lines (A431, MCF-7, A375, HCT-15, SW480, CaCo-2, DLD-1); test: MTT cytotoxicity, comparison over the Table 1 panel; type: cell-based; conditions: average over seven cell lines of Table 1
Description: as §3
The cytotoxicity was evaluated by means of the MTT test for 72 h treatment with increasing concentrations of the tested compounds.

[8] = literature values; cited from earlier work
LoVo-OXP cells = test: Cellular platinum uptake by GF-AAS; type: cell-based, human; conditions: LoVo-OXP resistant cells, 5 μM, 6, 24, 48 h, FIG. 2 panel B, compared with LoVo
Description: LoVo and LoVo-OXP cells (2×10^6) were seeded in 75 cm^2 flasks in growth medium (20 ml). After 24 h, the medium was replaced and the cells incubated for different times (6, 24 or 48 h) in the presence of the tested complexes. Cell monolayers were washed twice with cold PBS and harvested. Samples were subjected to three freezing/thawing cycles at −80° C., and then vigorously vortexed. Aliquots were removed for the determination of protein content by the BioRad protein assay (BioRad). The samples were treated with 1 mL of highly pure nitric acid (Pt: ≦0.01 μg×kg^−1, TraceSELECT® Ultra, Sigma Chemical Co.) and transferred into a microwave teflon vessel. Subsequently, samples were submitted to a standard procedure using a speed wave MWS-3 Berghof instrument (Eningen, Germany). After cooling, each mineralized sample was analyzed for platinum by using a Varian AA Duo graphite furnace atomic absorption spectrometer (Varian, Palo Alto, Calif.; USA) at the wavelength of […]. The calibration curve was obtained using known concentrations of standard solutions purchased from Sigma Chemical Co.
It is well-known that cellular uptake is an important factor influencing drug efficacy. […] The intracellular platinum was quantified by means of GF-AAS analysis and the results, expressed as μg metal mg^−1 of cellular proteins, are summarized in FIG. 2.

Structure (SMILES)	log Po/w [1]	cytotoxicity, fold greater than cisplatin [2]	body weight loss [3]	body weight loss [4]	body weight loss compared with cisplatin ([5]; 1.5 mg kg^−1 each, FIG. 3)	tolerability compared with cisplatin ([5]; daily i.p.)	adverse side effects (body weight loss) compared with cisplatin ([5]; compound 1 at 3 mg kg^−1, FIG. 3)	aqueous solubility (Aqueous solubility)	cytotoxic activity towards sensitive lines compared with reference drugs [6]	average cytotoxic activity compared with reference drugs [7]	log Po/w [8]	intracellular platinum accumulation (LoVo-OXP cells)
[Cl][Pt]1([Cl])[NH]C2CCC(CC2)[NH]1 [Compound 1, [SP-4-2-(cis)]-dichloro(1,4-cyclohexanediamine-N,N′)platinum]	−1.57±0.10	3.4-5.4	roughly equivalent to that obtained by using the parent drug oxaliplatin	roughly equivalent to that obtained by using the parent drug oxaliplatin	about half that caused by cisplatin	better tolerated than cisplatin	smaller adverse side effects than cisplatin	enhanced aqueous solubility compared to compound 2	as good as oxaliplatin and better than cisplatin	slightly more effective than oxaliplatin		
[Cl][Pt]1([Cl])[NH][C@@H]2CCCC[C@H]2[NH]1 [Compound 2, [SP-4-2]-dichloro[(1R,2R)-1,2-cyclohexanediamine-N^1,N^2]platinum]											−1.40	remarkably decreased; also recorded: decreases remarkably
